# “Also recorded” adds a separate entry of the source.
# Tests used:
# [1] = Approximate measured solubility in solvents at 25° C.; format: physicochemical; conditions: at least 24 hours; for solubility: 25 °C, thermodynamic from solid
# Experimental: (§1) The solubility of Form A was investigated in a number of solvents at ambient conditions. Solubility measurements were obtained by adding solvent (either HPLC grade or reagent grade) to a carefully weighed (approximately 100 mg) sample of Form A. The resulting mixture was agitated for at least 24 hours at 25° C. The solubility was estimated based on the total volume of solvent required to give a complete solution. In addition, a known volume of filtrate was evaporated to dryness and the weight of the residue was measured.
# as §1, with “B” for “A”, “B.” for “A.”
# [2] = Stability on exposure to 40° C./75% RH for four weeks (XRPD); format: physicochemical; conditions: 40° C./75% RH environment
# Experimental: The stability of Form A was investigated by exposing a sample of Form A to a 40° C./75% RH environment for four weeks.
# The stability of Form B was investigated by exposing a sample of Form B to a 40° C./75% RH environment for four weeks.
# (§2) X-ray powder diffraction (XRPD) analysis was conducted using a Thermo ARL X'TRA X-ray powder diffractometer using CuKα radiation at 1.54 Å. The instrument was equipped with a fine focus X-ray tube. The voltage and amperage of the X-ray generator were set at 45 kV and 40 mA, and the measuring slits were set at 0.5 mm and 0.2 mm. Diffracted radiation was measured using a Peltier-cooled Si (Li) solid-state detector. A theta-two theta continuous scan at 2.40°/min (0.5 sec/0.02° step) from 1.5°2θ to 40°2θ was used. A sintered alumina standard was used as a reference.
# [3] = Stability of slurry in solvents at 40° C. for four weeks; format: physicochemical
# Experimental: The stability of Form A was further investigated by storing a slurry of Form A in each of the following solvents at 40° C. for four weeks: acetone; acetonitrile; ethanol; heptane; 2-propanol; methyl t-butyl ether; methanol; water; and ethanol/water (1/1). The Form A material was stable in acetone; acetonitrile; ethanol; heptane; 2-propanol; methyl t-butyl ether; and methanol.
# The stability of Form B was further investigated by storing a slurry of Form B in the following solvents at 40° C. for four weeks: acetone; acetonitrile; ethanol; heptane; 2-propanol; methyl t-butyl ether; methanol; water; and ethanol/water (1/1). The Form B material was stable in heptane; methyl t-butyl ether; water; and ethanol/water (1/1).
# [4] = Compression testing, 2,000 psi for approximately 1 minute (XRPD); format: physicochemical; conditions: 2,000 psi pressure
# Experimental: The stability of Form A was further investigated using compression testing. Compression testing of Form A was carried out by applying 2,000 psi pressure to a sample of Form A for approximately 1 minute, followed by analysis for stability using X-ray powder diffraction.
# The stability of Form B was further investigated using compression testing. Compression testing of Form B was carried out by applying 2,000 psi pressure to a sample of Form B for approximately 1 minute, followed by analysis for stability using X-ray powder diffraction.
# as §2
# [5] = Moisture sorption/desorption by Dynamic Vapor Sorption (DVS); format: physicochemical; conditions: for Mass change relative to the dry mass: DVS, RH increased from 0% to 95% RH (25° C. per general method); for Weight at the end of the desorption cycle: RH decreased from 95% RH to 0% RH; for XRPD diffractogram after completion of the adsorption/desorption cycle: after full DVS cycle 0% - 95% - 0% RH; for Hygroscopicity: conclusion from moisture sorption test
# Experimental: The moisture sorption/desorption behavior of Form A was investigated by Dynamic Vapor Sorption (DVS).
# The moisture sorption/desorption behavior of Form B was investigated by Dynamic Vapor Sorption (DVS).
# Hygroscopicity was determined using a Surface Measurement Systems DVS instrument. Typically, a sample size of 10-50 mg was loaded into the DVS instrument sample pan and the sample was analyzed on a DVS automated sorption analyzer at 25° C. The relative humidity (RH) was increased from 0% RH to 95% RH. The RH was then decreased in a similar manner to accomplish a full adsorption/desorption cycle.
# [6] = Slurry equilibration in solvents at 25° C. or 50° C.; format: physicochemical; conditions: ethyl acetate, heptane, methyl t-butyl ether, toluene
# Experimental: Form A was prepared via crystallization of 3-(2,5-dimethyl-4-oxo-4H-quinazolin-3-yl)-piperidine-2,6-dione in several organic solvent systems. Slurry crystallizations were performed by adding an excess of solid 3-(2,5-dimethyl-4-oxo-4H-quinazolin-3-yl)-piperidine-2,6-dione to 2 ml of the desired solvent system, then agitating the resulting mixture for a minimum of 24 hours at a controlled temperature. Upon reaching equilibrium, the solids were filtered, air-dried and characterized. Form A was prepared by slurry crystallization of Form B in each of the following solvents at 25° C.: acetone; acetonitrile; n-butanol; ethanol; methanol; methyl ethyl ketone; 2-propanol; and tetrahydrofuran.
# Form B was prepared via crystallization of 3-(2,5-dimethyl-4-oxo-4H-quinazolin-3-yl)-piperidine-2,6-dione in several organic and aqueous solvent systems, including dimethylsulfoxide/water. Slurry crystallizations were performed by adding an excess of solid 3-(2,5-dimethyl-4-oxo-4H-quinazolin-3-yl)-piperidine-2,6-dione to 2 ml of the desired solvent system, then agitating the resulting mixture for a minimum of 24 hours at a controlled temperature. Upon reaching equilibrium, the solids were filtered, air-dried and characterized. Form B was prepared by slurry crystallization of Form A in the following solvents at both 25° C. and 50° C.: water; and ethanol/water (1/1).
# [7] = Moisture sorption/desorption by Dynamic Vapor Sorption (DVS); format: physicochemical; conditions: isothermic approximately 23.3° C.; for Mass increase in moisture sorption test: approximately 0% RH to approximately 50% RH (FIG. 5 / FIG. 10); for Total mass increase in moisture sorption test: approximately 0% RH to approximately 95% RH (FIG. 5 / FIG. 10)
structure (smiles),measurement,setting,value
"Cc1cccc2nc(C)n(C3CCC(=O)NC3=O)c(=O)c12 (single isomer, unassigned) [Form B, 3-(2,5-dimethyl-4-oxo-4H-quinazolin-3-yl)-piperidine-2,6-dione]",Approximate Solubility,[1]; 2-Propanol,350 µg/mL
same,Approximate Solubility,[1]; Absolute ethanol,500 µg/mL
same,Approximate Solubility,[1]; Acetone,2560 µg/mL
same,Approximate Solubility,[1]; Acetonitrile,1400 µg/mL
same,Approximate Solubility,[1]; Ethanol/Water (1/1),280 µg/mL
same,Approximate Solubility,[1]; Ethyl acetate,1160 µg/mL
same,Approximate Solubility,[1]; Heptane,440 µg/mL
same,Approximate Solubility,[1]; Methanol,1310 µg/mL
same,Approximate Solubility,[1]; Methyl ethyl ketone,1570 µg/mL
same,Approximate Solubility,[1]; Methyl t-butyl ether,430 µg/mL
same,Approximate Solubility,[1]; Methylene chloride,1630 µg/mL
same,Approximate Solubility,[1]; Tetrahydrofuran,4710 µg/mL
same,Approximate Solubility,[1]; Toluene,200 µg/mL
same,Approximate Solubility,[1]; Water,100 µg/mL
same,Approximate Solubility,[1]; n-Butanol,340 µg/mL
same,Physical stability of the solid form by X-ray powder diffraction,[2],substantially unchanged; also recorded: physically stable
same,Stability of slurry,[3]; 2-propanol,converted to a mixture of Forms A and B
same,Stability of slurry,"[3]; acetone, acetonitrile, ethanol and methanol",converted into the Form A crystal form
same,Stability of slurry,"[3]; heptane, methyl t-butyl ether, water, ethanol/water (1/1)",stable
same,Physical stability upon compression by X-ray powder diffraction,[4],substantially unchanged; also recorded: physically stable
same,Mass change relative to the dry mass,[5],2.9%
same,Weight at the end of the desorption cycle,[5],lost all of the weight it had gained; also recorded: loses approximately all of the adsorbed moisture
same,XRPD diffractogram after completion of the adsorption/desorption cycle,[5],substantially unchanged
same,Hygroscopicity,[5],substantially non-hygroscopic
same,Stability when slurried,"[6]; 25° C., methylene chloride, water, ethanol/water (1/1)",stable
same,Mass increase in moisture sorption test,[7],approximately 1.5%
same,Total mass increase in moisture sorption test,[7],approximately 3%
"Cc1cccc2nc(C)n(C3CCC(=O)NC3=O)c(=O)c12 (single isomer, unassigned) [Form A, 3-(2,5-dimethyl-4-oxo-4H-quinazolin-3-yl)-piperidine-2,6-dione]",solubility,"[1]; 2-propanol, organic solvent or mixture",210 µg/mL
same,solubility,"[1]; absolute ethanol, organic solvent or mixture",500 µg/mL
same,solubility,"[1]; acetone, organic solvent or mixture",2070 µg/mL
same,solubility,"[1]; acetonitrile, organic solvent or mixture",1490 µg/mL
same,solubility,"[1]; ethanol/water (1/1), aqueous with cosolvent or surfactant or cyclodextrin",180 µg/mL
same,solubility,"[1]; ethyl acetate, organic solvent or mixture",670 µg/mL
same,solubility,"[1]; heptane, organic solvent or mixture",430 µg/mL
same,solubility,"[1]; methanol, organic solvent or mixture",1280 µg/mL
same,solubility,"[1]; methyl ethyl ketone, organic solvent or mixture",1390 µg/mL
same,solubility,"[1]; methyl t-butyl ether, organic solvent or mixture",420 µg/mL
same,solubility,"[1]; methylene chloride, organic solvent or mixture",2120 µg/mL
same,solubility,"[1]; n-butanol, organic solvent or mixture",230 µg/mL
same,solubility,"[1]; tetrahydrofuran, organic solvent or mixture",4570 µg/mL
same,solubility,"[1]; toluene, organic solvent or mixture",320 µg/mL
same,solubility,[1]; water,170 µg/mL
same,Physical stability of the solid form by X-ray powder diffraction,[2],substantially unchanged; also recorded: physically stable
same,Stability of slurry,"[3]; acetone, acetonitrile, ethanol, heptane, 2-propanol, methyl t-butyl ether, methanol",stable
same,Stability of slurry,[3]; water and ethanol/water (1/1),converted into the Form B crystal form
same,Physical stability upon compression by X-ray powder diffraction,[4],substantially unchanged; also recorded: physically stable
same,Mass change relative to the dry mass,[5],0.7%
same,Weight at the end of the desorption cycle,[5],lost all of the weight it had gained; also recorded: loses approximately all of the adsorbed moisture
same,XRPD diffractogram after completion of the adsorption/desorption cycle,[5],substantially unchanged
same,Hygroscopicity,[5],substantially non-hygroscopic
same,Stability when slurried,"[6]; 25° C., acetone, acetonitrile, n-butanol, ethanol, methanol, methylene chloride, methyl ethyl ketone, 2-propanol, tetrahydrofuran",stable
same,Stability when slurried,"[6]; 50° C., acetone, acetonitrile, n-butanol, ethanol, methanol, methyl ethyl ketone, 2-propanol, tetrahydrofuran",stable
same,melting point,,292 to 294 °C
same,Mass increase in moisture sorption test,[7],approximately 1%
same,Total mass increase in moisture sorption test,[7],approximately 4%

# From US8354417B2, “Solid forms comprising 3-(2,5-dimethyl-4-oxo-4H-quinazolin-3-yl)-piperidine-2,6-dione, compositions comprising the same, and methods of using the same” (Celgene Corporation, priority 2007, dated 2013)
